Active and inactive are the calls of the source. The calls are words filed in the database; no cut-off is given here.
Columns and labels:
BT-474 [1] = experiment: Antitumor activity against human BT474 cells xenografted in athymic nude mouse assessed as reduction in metastasis of cells at 50 mg/kg, po administered via oral gavage for 5 times per week for 55 days measured post-last dose; type: functional, organism-based; details: time 55.0 day
BT-474 [2] = experiment: Antitumor activity against human BT474 cells xenografted in athymic nude mouse assessed as suppression of tumor growth by measuring decrease in number of Ki67 positive cells at 50 mg/kg, po administered via oral gavage for 5 times per week for 55 days measured post-last dose by Ki67-staining based immunohistochemistry; type: functional, organism-based; details: time 55.0 day
BT-474 [3] = experiment: Antitumor activity against human BT474 cells xenografted in athymic nude mouse assessed as inflammation in tumors at 50 mg/kg, po administered via oral gavage for 5 times per week for 55 days measured post-last dose by H and E staining based immunohistochemical analysis; type: functional, organism-based; details: time 55.0 day
BT-474 [4] = experiment: Antitumor activity against human BT474 cells xenografted in athymic nude mouse assessed as appearance of tumor fibrosis at 50 mg/kg, po administered via oral gavage for 5 times in a week for 55 days measured post-last dose by H and E staining based immunohistochemical analysis; type: functional, organism-based; details: time 55.0 day
BT-474 [5] = experiment: Antitumor activity against human BT474 cells xenografted in athymic nude mouse assessed as tumor necrosis at 50 mg/kg, po administered via oral gavage for 5 times in a week for 55 days measured post-last dose by H and E staining based immunohistochemical analysis; type: functional, organism-based; details: time 55.0 day
BT-474 [6] = experiment: Antitumor activity against human BT474 cells xenografted in athymic nude mouse assessed as tumor weight at 50 mg/kg, po administered via oral gavage for 5 times in a week for 55 days measured post last dose (reference value: 2.046 g); type: functional; details: time 55 day
BT-474 [7] = experiment: Antitumor activity against human BT474 cells xenografted in athymic nude mouse assessed as tumor growth inhibition at 50 mg/kg, po administered via oral gavage for 5 times in a week for 55 days measured post last dose; type: functional, organism-based; details: time 55.0 day
[8] = biological target: T1, Receptor tyrosine-protein kinase erbB-2 (Homo sapiens, UniProt P04626); experiment: Inhibition of HER2 in human BT474 cells assessed as reduction in Erk1/2 phosphorylation at 0.5 IC50 incubated for 24 to 48 hrs by western blot analysis; type: cell-based; details: BT-474, time 24-48 hrs
T1 sequence (P04626 whole entry): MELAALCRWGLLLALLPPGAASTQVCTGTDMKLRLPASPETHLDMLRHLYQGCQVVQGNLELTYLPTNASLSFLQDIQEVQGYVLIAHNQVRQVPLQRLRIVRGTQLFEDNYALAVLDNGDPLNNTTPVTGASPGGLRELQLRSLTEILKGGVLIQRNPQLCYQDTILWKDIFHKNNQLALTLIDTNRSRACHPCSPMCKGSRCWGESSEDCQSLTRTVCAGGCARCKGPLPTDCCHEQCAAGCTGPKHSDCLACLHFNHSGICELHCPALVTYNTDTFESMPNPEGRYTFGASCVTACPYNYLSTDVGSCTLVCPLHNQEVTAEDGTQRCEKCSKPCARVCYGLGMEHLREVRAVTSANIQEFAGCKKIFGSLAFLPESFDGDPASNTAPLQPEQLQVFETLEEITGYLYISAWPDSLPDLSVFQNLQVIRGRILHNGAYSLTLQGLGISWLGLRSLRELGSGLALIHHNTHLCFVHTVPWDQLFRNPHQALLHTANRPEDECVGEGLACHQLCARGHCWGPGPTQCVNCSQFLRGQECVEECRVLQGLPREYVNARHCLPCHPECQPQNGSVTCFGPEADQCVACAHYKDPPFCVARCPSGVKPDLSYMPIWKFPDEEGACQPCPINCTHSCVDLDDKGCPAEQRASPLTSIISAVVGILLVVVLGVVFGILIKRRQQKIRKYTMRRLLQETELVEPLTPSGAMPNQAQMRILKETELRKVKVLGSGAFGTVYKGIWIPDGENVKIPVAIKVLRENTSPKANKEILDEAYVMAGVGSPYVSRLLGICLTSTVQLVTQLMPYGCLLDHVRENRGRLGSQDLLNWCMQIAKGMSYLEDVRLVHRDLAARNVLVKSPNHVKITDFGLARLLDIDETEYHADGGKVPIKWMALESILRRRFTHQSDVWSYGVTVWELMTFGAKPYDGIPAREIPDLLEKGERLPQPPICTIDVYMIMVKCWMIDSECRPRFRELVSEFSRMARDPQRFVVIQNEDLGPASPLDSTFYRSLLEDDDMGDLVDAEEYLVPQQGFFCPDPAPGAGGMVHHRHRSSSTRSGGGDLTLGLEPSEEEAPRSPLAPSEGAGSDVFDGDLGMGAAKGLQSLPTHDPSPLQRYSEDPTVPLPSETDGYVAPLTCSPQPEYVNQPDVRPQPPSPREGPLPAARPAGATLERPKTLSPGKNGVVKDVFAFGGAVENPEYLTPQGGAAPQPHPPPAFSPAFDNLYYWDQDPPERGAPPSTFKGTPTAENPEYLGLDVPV

[9] = biological target: T1, Receptor tyrosine-protein kinase erbB-2; experiment: Inhibition of HER2 in human BT474 cells assessed as reduction in Erk1/2 phosphorylation at 0.1 IC50 incubated for 24 to 48 hrs by western blot analysis; type: cell-based; details: BT-474, time 24-48 hrs
[10] = biological target: T1, Receptor tyrosine-protein kinase erbB-2; experiment: Inhibition of HER2 in human BT474 cells assessed as reduction in Akt phosphorylation at 0.5 IC50 incubated for 24 to 48 hrs by western blot analysis; type: cell-based; details: BT-474, time 24-48 hrs
[11] = biological target: T1, Receptor tyrosine-protein kinase erbB-2; experiment: Inhibition of HER2 in human BT474 cells assessed as reduction in Akt phosphorylation at 0.1 IC50 incubated for 24 to 48 hrs by western blot analysis; type: cell-based; details: BT-474, time 24-48 hrs
[12] = biological target: T1, Receptor tyrosine-protein kinase erbB-2; experiment: Inhibition of HER2 in human BT474 cells assessed as reduction in Akt phosphorylation at 0.1 IC50 after 24 to 48 hrs by Western blot analysis; type: cell-based; details: BT-474, time 24-48 hrs
[13] = biological target: T1, Receptor tyrosine-protein kinase erbB-2; experiment: Inhibition of HER2 in human BT474 cells assessed as reduction in Akt phosphorylation at 0.5 IC50 after 24 to 48 hrs by Western blot analysis; type: cell-based; details: BT-474, time 24-48 hrs
BT-474 [14] = experiment: Down regulation of HER2 expression in human BT474 cells at 0.1 IC50 after 24 to 48 hrs by Western blot analysis; type: functional, cell-based; details: time 24-48 hrs
BT-474 [15] = experiment: Down regulation of HER2 expression in human BT474 cells at 0.5 IC50 after 24 to 48 hrs by Western blot analysis; type: functional, cell-based; details: time 24-48 hrs
BT-474 [16] = experiment: Induction of apoptosis in human BT474 cells assessed as increase in late apoptotic cells at 0.5 to 5 uM incubated for 72 hrs by Annexin V-FITC/PI staining based flow cytometry analysis relative to control; type: functional; details: dose 0.5-5 µM
BT-474 [17] = experiment: Induction of apoptosis in human BT474 cells assessed as increase in early apoptotic cells at 0.5 to 5 uM incubated for 72 hrs by Annexin V-FITC/PI staining based flow cytometry analysis relative to control; type: functional; details: dose 0.5-5 µM
BT-474 [18] = experiment: Induction of apoptosis in human BT474 cells assessed as increase in early apoptotic cells incubated for 72 hrs by Annexin V-FITC/PI staining based flow cytometry analysis; type: functional, cell-based; details: dose 0.1-5 µM
[19] = Antiproliferative activity against human BC assessed as lethality at 10 uM after 48 hrs by SRB assay relative to control; type: functional
[20] = Antiproliferative activity against human BC assessed as cell growth inhibition at 10 uM after 48 hrs by SRB assay relative to control; type: functional; details: read-out: GI
[21] = Antiproliferative activity against human MDA-MB-231 cells assessed as lethality at 10 uM after 48 hrs by SRB assay relative to control; type: functional, MDA-MB-23
MCF7 [22] = experiment: Antiproliferative activity against human MCF7 cells assessed as lethality at 10 uM after 48 hrs by SRB assay relative to control; type: functional
MDA-MB-468 [23] = experiment: Antiproliferative activity against human MDA-MB-468 cells assessed as cell growth inhibition after 48 hrs by SRB assay; type: functional
MDA-MB-468 [24] = experiment: Antiproliferative activity against human MDA-MB-468 cells assessed as lethality at 10 uM after 48 hrs by SRB assay relative to control; type: functional
MDA-MB-468 [25] = experiment: Antiproliferative activity against human MDA-MB-468 cells assessed as cell growth inhibition at 10 uM after 48 hrs by SRB assay relative to control; type: functional; details: read-out: GI
[26] = tested on: Panel NCI-60 (60 carcinoma cell lines); experiment: Antiproliferative activity against human NCI60 cells assessed as lethality at 10 uM after 48 hrs by SRB assay relative to control; type: functional
[27] = tested on: Panel NCI-60 (60 carcinoma cell lines); experiment: Antiproliferative activity against human NCI60 cells assessed as mean cell growth at 10 uM after 48 hrs by SRB assay relative to control; type: functional
MDA-MB-231 = experiment: Antiproliferative activity against human MDA-MB-231 cells assessed as reduction in cell viability incubated for 72 hrs by WST8 assay; type: functional, cell-based; details: MDA-MB-231, 72 h
MCF7 [28] = experiment: Antiproliferative activity against human MCF7 cells assessed as reduction in cell viability incubated for 72 hrs by WST8 assay; type: functional, cell-based; details: MCF7, 72 h
[29] = biological target: Platelet-derived growth factor receptor alpha (Homo sapiens, UniProt P16234); experiment: Effect on human recombinant N-terminal GST-tagged PDGFRalpha (550 to end residues) expressed in baculovirus infected Sf9 insect cells in presence of substrate and [gamma-32ATP] at 10 uM incubated for 30 mins by scintillation counting based radiometry assay relative to control; details: 0.5 h, read-out: Activity
Sequence of Platelet-derived growth factor receptor alpha (P16234 whole entry): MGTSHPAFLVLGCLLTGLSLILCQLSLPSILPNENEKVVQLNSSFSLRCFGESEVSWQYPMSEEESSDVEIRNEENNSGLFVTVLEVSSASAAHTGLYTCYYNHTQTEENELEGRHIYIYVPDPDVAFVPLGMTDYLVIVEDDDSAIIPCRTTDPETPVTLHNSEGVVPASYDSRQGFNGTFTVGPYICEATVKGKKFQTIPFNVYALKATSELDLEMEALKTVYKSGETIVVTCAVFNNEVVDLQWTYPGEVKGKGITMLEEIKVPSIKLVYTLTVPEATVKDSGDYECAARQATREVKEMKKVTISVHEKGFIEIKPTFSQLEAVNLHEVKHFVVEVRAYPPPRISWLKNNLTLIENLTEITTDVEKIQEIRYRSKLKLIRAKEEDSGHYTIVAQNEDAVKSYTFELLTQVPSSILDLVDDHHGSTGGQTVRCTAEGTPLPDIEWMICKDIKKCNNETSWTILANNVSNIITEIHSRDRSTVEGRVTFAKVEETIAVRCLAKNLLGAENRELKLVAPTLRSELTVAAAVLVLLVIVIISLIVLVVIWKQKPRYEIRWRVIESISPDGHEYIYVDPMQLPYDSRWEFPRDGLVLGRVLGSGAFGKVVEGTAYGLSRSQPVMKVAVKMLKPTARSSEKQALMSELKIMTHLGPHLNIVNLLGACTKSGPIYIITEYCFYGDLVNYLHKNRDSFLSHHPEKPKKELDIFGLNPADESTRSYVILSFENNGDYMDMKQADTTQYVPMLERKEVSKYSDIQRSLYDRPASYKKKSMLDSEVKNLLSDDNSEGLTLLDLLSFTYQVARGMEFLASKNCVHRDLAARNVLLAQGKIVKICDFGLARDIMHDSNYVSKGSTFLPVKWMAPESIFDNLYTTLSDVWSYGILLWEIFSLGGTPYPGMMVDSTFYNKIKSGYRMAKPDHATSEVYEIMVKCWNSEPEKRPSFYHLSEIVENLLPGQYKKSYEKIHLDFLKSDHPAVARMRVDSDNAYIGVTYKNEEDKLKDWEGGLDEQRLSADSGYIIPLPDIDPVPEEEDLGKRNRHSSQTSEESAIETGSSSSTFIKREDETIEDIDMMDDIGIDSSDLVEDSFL

[30] = biological target: Receptor tyrosine-protein kinase erbB-4 (Homo sapiens, UniProt Q15303); experiment: Effect on human recombinant N-terminal GST-tagged HER4 (682 to 993) expressed in baculovirus infected Sf9 insect cells in presence of substrate and [gamma-32ATP] at 10 uM incubated for 30 mins by scintillation counting based radiometry assay relative to control; details: 0.5 h, read-out: Activity
Sequence of Receptor tyrosine-protein kinase erbB-4 (Q15303 whole entry): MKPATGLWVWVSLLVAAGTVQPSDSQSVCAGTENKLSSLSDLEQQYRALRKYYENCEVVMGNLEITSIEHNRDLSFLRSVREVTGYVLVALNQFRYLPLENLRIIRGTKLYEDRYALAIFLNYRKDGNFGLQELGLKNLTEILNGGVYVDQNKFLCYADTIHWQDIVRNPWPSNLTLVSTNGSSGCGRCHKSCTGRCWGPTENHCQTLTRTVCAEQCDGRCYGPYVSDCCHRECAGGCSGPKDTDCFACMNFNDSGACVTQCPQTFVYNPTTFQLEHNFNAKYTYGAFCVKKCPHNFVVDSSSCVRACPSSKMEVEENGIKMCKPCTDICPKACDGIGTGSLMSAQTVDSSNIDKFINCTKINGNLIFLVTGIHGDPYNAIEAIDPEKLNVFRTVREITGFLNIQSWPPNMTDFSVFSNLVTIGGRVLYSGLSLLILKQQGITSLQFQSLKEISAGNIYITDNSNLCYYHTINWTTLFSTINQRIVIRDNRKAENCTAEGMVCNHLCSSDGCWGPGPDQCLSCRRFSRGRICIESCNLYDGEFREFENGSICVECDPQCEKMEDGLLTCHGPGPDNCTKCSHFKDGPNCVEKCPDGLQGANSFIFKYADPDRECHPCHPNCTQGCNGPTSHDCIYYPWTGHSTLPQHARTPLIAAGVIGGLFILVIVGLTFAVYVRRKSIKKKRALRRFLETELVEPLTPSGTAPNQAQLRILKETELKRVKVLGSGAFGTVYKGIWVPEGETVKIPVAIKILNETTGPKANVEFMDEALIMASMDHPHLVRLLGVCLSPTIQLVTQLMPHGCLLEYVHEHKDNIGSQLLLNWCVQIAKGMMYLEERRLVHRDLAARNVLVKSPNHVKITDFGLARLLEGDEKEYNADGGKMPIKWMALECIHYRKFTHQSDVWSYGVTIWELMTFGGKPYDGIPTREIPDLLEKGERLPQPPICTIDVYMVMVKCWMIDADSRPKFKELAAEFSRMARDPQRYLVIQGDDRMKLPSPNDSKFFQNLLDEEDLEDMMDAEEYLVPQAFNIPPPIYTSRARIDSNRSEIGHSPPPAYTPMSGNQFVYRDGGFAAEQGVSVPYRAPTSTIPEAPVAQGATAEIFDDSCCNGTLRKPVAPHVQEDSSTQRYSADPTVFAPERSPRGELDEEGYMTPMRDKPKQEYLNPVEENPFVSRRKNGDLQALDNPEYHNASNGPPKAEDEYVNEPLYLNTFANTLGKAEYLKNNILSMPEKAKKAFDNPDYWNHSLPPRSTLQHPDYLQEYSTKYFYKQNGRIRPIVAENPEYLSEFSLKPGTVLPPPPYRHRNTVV

[31] = biological target: T1, Receptor tyrosine-protein kinase erbB-2; experiment: Inhibition of wild-type HER2 (unknown origin) at 0.5 nM in presence of substrate incubated for 30 mins by ADP-Glo assay relative to control
BT-474 [32] = experiment: Antiproliferative activity against human BT474 cells assessed as reduction in cell viability incubated for 72 hrs by WST8 assay; type: functional, cell-based; details: BT-474, 72 h
AU565 = experiment: Antiproliferative activity against human AU565 cells assessed as reduction in cell viability incubated for 72 hrs by WST8 assay; type: functional, cell-based; details: AU565, 72 h
[33] = biological target: T1, Receptor tyrosine-protein kinase erbB-2; experiment: Inhibition of HER2 (unknown origin) in presence of substrate incubated for 30 mins by ADP-Glo assay
[34] = biological target: T1, Receptor tyrosine-protein kinase erbB-2; details: Sf9, human, 0.5 h
[35] = biological target: Epidermal growth factor receptor (Homo sapiens, UniProt P00533); details: 0.5 h
Sequence of Epidermal growth factor receptor (P00533 whole entry): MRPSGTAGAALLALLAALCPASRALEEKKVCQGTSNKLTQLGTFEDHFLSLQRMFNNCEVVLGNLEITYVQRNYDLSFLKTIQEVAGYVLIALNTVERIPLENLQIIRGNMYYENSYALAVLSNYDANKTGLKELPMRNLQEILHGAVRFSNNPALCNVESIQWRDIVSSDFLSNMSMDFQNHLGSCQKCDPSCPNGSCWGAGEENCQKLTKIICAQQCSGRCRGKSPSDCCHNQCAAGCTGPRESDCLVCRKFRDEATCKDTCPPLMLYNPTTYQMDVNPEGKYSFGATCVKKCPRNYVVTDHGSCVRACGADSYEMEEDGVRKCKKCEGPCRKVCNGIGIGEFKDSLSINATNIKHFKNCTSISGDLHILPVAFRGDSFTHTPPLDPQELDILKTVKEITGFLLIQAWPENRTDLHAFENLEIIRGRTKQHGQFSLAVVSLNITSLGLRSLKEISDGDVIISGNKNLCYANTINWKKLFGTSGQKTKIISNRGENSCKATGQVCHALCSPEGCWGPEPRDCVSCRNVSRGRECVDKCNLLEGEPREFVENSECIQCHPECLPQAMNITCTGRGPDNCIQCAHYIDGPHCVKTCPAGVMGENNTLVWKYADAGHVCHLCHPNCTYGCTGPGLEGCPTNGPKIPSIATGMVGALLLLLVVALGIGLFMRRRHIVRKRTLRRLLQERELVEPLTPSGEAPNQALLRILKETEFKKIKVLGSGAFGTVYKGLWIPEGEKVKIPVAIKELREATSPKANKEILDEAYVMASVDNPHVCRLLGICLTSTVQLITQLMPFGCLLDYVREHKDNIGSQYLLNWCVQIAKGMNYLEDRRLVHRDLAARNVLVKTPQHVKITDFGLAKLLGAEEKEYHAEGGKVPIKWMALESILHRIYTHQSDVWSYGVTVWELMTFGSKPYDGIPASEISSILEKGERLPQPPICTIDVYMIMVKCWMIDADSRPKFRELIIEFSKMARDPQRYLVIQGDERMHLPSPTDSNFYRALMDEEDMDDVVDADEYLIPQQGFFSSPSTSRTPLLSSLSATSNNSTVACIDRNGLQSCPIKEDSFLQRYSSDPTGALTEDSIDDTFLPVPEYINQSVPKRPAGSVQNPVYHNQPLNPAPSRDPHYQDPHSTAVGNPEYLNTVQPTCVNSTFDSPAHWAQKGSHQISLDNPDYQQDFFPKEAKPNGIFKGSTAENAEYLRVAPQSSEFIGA
Description: Effect on human EGFR in presence of substrate and [gamma-32ATP] at 10 uM incubated for 30 mins by scintillation counting based radiometry assay relative to control

in vitro [36] = details: CD-1, mouse, liver microsomes
Description: Metabolic stability in CD-1 mouse liver microsomes assessed as parent compound remaining at 100 uM measured after 60 mins by LC-MS/MS analysis

in vitro [37] = details: CD-1, mouse, liver microsomes; remark: listed apart in the source
Description: Metabolic stability in CD-1 mouse liver microsomes assessed as parent compound remaining at 100 uM measured after 60 mins in presence of NADPH by LC-MS/MS analysis

in vitro [38] = details: CD-1, mouse, liver microsomes; remark: listed apart in the source
in vitro [39] = details: CD-1, mouse, microsomes
in vitro [40] = details: CD-1, mouse, liver microsomes; remark: listed apart in the source
[41] = Selectivity ratio of IC50 for antiproliferative activity against human AU565 cells to IC50 for antiproliferative activity against human BT474 cells; type: functional
MCF7 [42] = experiment: Potency index, ratio of lapatinib IC50 to test compound IC50 for antiproliferative activity against human MCF7 cells; type: functional

Question: What does the source list for `O=C(Nc1ccc2ncnc(Nc3ccc(Oc4cccc(F)c4)c(Cl)c3)c2c1)c1ccc(CNCCO)cc1`?
Answer: Activity (BT-474 [1]): Active; Activity (BT-474 [2]): Active; Activity (BT-474 [3]): Active; Activity (BT-474 [4]): Active; Activity (BT-474 [5]): Active; Activity (BT-474 [6]): 0.572 g; TGI (BT-474 [7]): Active; inhibition [8]: Active; inhibition [9]: Active; inhibition [10]: Active; inhibition [11]: Active; inhibition [12]: Active; inhibition [13]: Active; Activity (BT-474 [14]): Active; Activity (BT-474 [15]): Active; Activity (BT-474 [16]): inactive; fold change (FC) (BT-474 [17]): <=6; Activity (BT-474 [18]): Dose-dependent effect; Activity [19]: <=78.7%; inhibition of growth at 10 µM [20]: ≤ 78.7%; Activity [21]: 18%; Activity (MCF7 [22]): 18%; GI50 (MDA-MB-468 [23]): 600 nM; Activity (MDA-MB-468 [24]): 18%; inhibition of growth at 10 µM (MDA-MB-468 [25]): 18.8%; Activity [26]: 1.3%; Activity [27]: 11.85%; IC50 (MDA-MB-231): 5230 nM; IC50 (MCF7 [28]): 5640 nM; activity at 10 µM [29]: -4%; activity at 10 µM [30]: -98%; inhibition [31]: 3%; IC50 (BT-474 [32]): 204 nM; IC50 (AU565): 205 nM; IC50 [33]: 12 nM; activity at 10 µM [34]: -92%; activity at 10 µM [35]: -70%; remaining at 1 h, 100 µM (in vitro [36]): 100%; remaining at 1 h, 100 µM (in vitro [37]): 103%; CLint scaled at 1 h, 100 µM (in vitro [38]): < 38 mL/min/kg; microsomal CLint at 1 h, 100 µM (in vitro [39]): < 9.6 µL/min/mg; half-life at 1 h, 100 µM (in vitro [40]): > 2.42 h

Question: Which Activity (BT-474 [16]) does the source give for `CN(C)CC(=O)Nc1ccc2ncnc(Nc3ccc(Oc4cccc(F)c4)c(Cl)c3)c2c1` here?
Answer: Its Activity is “inactive”.

Question: What about the “fold change (FC)” value (BT-474 [17]) of the same molecule?
Answer: The value was “<=6”.

Question: And the Activity (BT-474 [18])?
Answer: Its Activity is “Dose-dependent effect”.

Question: What about the IC50 (MDA-MB-231) of the same molecule?
Answer: Its IC50 is 6560 nM.

Question: And the IC50 (MCF7 [28])?
Answer: The IC50 was 321 nM.

Question: And the IC50 (BT-474 [32])?
Answer: Its IC50 is 107 nM.

Question: What about the IC50 (AU565) of the same molecule?
Answer: Its IC50 is 663 nM.

Question: And the “Ratio IC50” value [41]?
Answer: The value was 6.

Question: And the “Ratio IC50” value (MCF7 [42])?
Answer: The value was “<=20”.
